{"source": "patent EP4458353A1", "about": "“ANTICARIOGENIC SYNERGETIC COMPOSITION FOR ORAL CARE” (SkyLab AG, priority 2023, dated 2024)", "format_in_all_cases": "cell-based", "key": {"[1]": {"test_system": "Streptococcus sobrinus", "assay": "Minimum inhibitory concentration (MIC), serial two-fold dilution with resazurin test", "conditions": "Streptococcus sobrinus, S. sobrinus"}, "[2]": {"test_system": "Streptococcus mutans No 22081", "assay": "Growth of planktonic culture in liquid nutritive medium (CFU count after 5 h)", "conditions": "S. mutans planktonic culture; 1 mg/mL; 5 h incubation", "method": "Example ? 3. Antibacterial activity of naringenin, guava leaf extract and lysozyme was assessed from the growth pattern of the reference strain Streptococcus mutans No 22081 (UNU Collection under I. I. Mechnikov Research Institute if Vaccines and sera) in liquid nutritive medium according to the procedure: • 1) Prepare the heart-brain broth (DM106D, Mast Group Ltd., U.K.) and Columbian agar supplemented with defibrinated blood (OOO \"GEM\" Cat. No BP-023) in accordance with the manufacturer's instruction. • 2) Using microbiological loop prepare the suspension (at concentration 1.5·10^8 CFU/mL) of 24 hour agar culture of S. mutans in the sterile buffered saline (BS) under visual control with McFarland standard 0.5. […] Prepare the composition of naringenin 0.33 mg/mL, lysozyme 0.33 mg/mL, and guava leaf extract 0.33 mg/mL. • 4) Put the plate with the samples into the incubator with 5% CO2 atmosphere, and incubate at 37°C for 5 h on shaking apparatus. • 5) After the 5 h incubation reinoculate the agar nutritive medium with the planktonic S. mutans culture to count CFU per 1 mL of medium. • 6) Perform optical density (OD) measurements using multimodal microplate reader at the wavelength 620 nm before the incubation (OD0) and then after the culture growth for 5 h ODt=5). […]"}, "[3]": {"test_system": "Streptococcus mutans", "assay": "Minimum biofilm inhibitory concentration (MBIC), crystal violet staining", "conditions": "S. mutans", "method": "(§1) Group of examples No 4 - 6. Anti-biofilm activity of the substance or of the composition of substances was assessed from minimum biofilm inhibitory concentration (MBIC) and from the rate of biofilm formation on hydroxyapatite disks.\n(§2) Reference strains Streptococcus mutans and S. Sobrinus were used as the bacterial models.\n(§3) Example No 4. MBIC as the measure of the substance effect on the bacterial biofilm is equal to minimum concentration inhibiting the biofilm formation or disruption of already formed biofilm during 24 hour incubation.\n(§4) MBIC of individual components of the composition, specifically, naringenin, guava leaf CO2 extract, and enzymes lysozyme and labiase can be determined according to the procedure: • 1) All stages of nutritive medium preparation, preparation and incubation of bacterial cultures in 96-well microtiter plates with the test composition of the substances added into nutritive medium were as described in Example 1. • 2) All controls for the culture growth, for purity of nutritive medium and for solvents were as described in Example 1. • 3) Incubate the plates at 37 °C for 24 ± 4 h without the use the orbital shaker. • 4) Stain the bacterial biofilm accumulated on bottom of the plate wells with crystal violet. For this purpose remove the planktonic culture from the plate wells after 24 h incubation and wash with two portions of phosphate-buffered saline (PBS, pH 7.4) to remove remaining planktonic culture. Then dry the plate for 12-15 hours. Add 100 µL of 0.5% crystal violet solution (Sigma-Aldrich, USA), dissolved in 96% ethanol followed by incubation for 20 minutes. After removal of crystal violet solution from the wells wash the plate with 3-4 portions of PBS. After drying add […] of 96% ethanol into the wells to elute the crystal violet, which has bound to the biofilm. • 5) Shake the plate on the orbital shaker for 2 minutes at 37 °C and then measure optical density (OD) at the wavelength of 550nm using multimodal microplate reader against the blank (the well, where the sterile medium LB was incubated and then exposed to all staining manipulations). Since the serial dilution method with 2-fold dilution steps is used for MBIC determination, the difference between the adjacent dilution is considered as non-significant, and MBIC is defined as the median value calculated for 5 independent biological replicates of the experiment. • 6) The following concentrations were tested: naringenin and guava leaf extract at concentrations 1.6, 0.8, 0.4, 0.2, 0.1, 0.05 mg/mL; lysozyme and labiase at concentrations 4.0, 2.0, 1.0, 0.5, 0.25, 0.125 mg/mL. Well-known antibacterial components were used as controls: chlorohexidine bigluconate at concentrations 64, 32, 16, 8, 4 µg/mL; zinc gluconate at concetrations 5.0, 2.5, 1.25, 0.6, 0.3, 0.15 mg/mL."}, "[4]": {"test_system": "Streptococcus sobrinus", "assay": "Minimum biofilm inhibitory concentration (MBIC), crystal violet staining", "conditions": "S. sobrinus", "method": "as §1, §2, §3, §4"}}, "note": "Like-named read-outs stand apart in the source and are kept apart here."}
{"smiles": "O=C1C[C@@H](c2ccc(O)cc2)Oc2cc(O)cc(O)c21", "note": "[Naringenin, naringenin]", "values": [{"measurement": "MIC", "setting": "[1]; 24 h at 37 °C, read-out: MIC value in individual replicate Replicate 1", "result": "> 1600", "unit": "µg/mL"}, {"measurement": "MIC", "setting": "[1]; 24 h at 37 °C, read-out: MIC value in individual replicate Replicate 2", "result": "> 1600", "unit": "µg/mL"}, {"measurement": "MIC", "setting": "[1]; 24 h at 37 °C, read-out: MIC value in individual replicate Replicate 3", "result": "> 1600", "unit": "µg/mL"}, {"measurement": "MIC", "setting": "[1]; 24 h at 37 °C, read-out: MIC value in individual replicate Replicate 4", "result": "> 1600", "unit": "µg/mL"}, {"measurement": "MIC", "setting": "[1]; 24 h at 37 °C, read-out: MIC value in individual replicate Replicate 5", "result": "> 1600", "unit": "µg/mL"}, {"measurement": "MIC", "setting": "[1]; median of 5 replicates, read-out: MIC Median value", "result": "> 1600", "unit": "µg/mL"}, {"measurement": "% of CFU obtained for control", "setting": "[2]", "result": 4.8, "unit": "%"}, {"measurement": "∑ CFU, mL", "setting": "[2]", "result": "4.3x10^7 CFU, mL"}, {"measurement": "MBIC in indicvdual replicates Replicate 1", "setting": "[3]; 24 h incubation", "result": 0.8, "unit": "mg/mL"}, {"measurement": "MBIC in indicvdual replicates Replicate 2", "setting": "[3]; 24 h incubation", "result": 0.8, "unit": "mg/mL"}, {"measurement": "MBIC in indicvdual replicates Replicate 3", "setting": "[3]; 24 h incubation", "result": 0.8, "unit": "mg/mL"}, {"measurement": "MBIC in indicvdual replicates Replicate 4", "setting": "[3]; 24 h incubation", "result": 0.4, "unit": "mg/mL"}, {"measurement": "MBIC in indicvdual replicates Replicate 5", "setting": "[3]; 24 h incubation", "result": 0.8, "unit": "mg/mL"}, {"measurement": "MBIC Median value", "setting": "[3]; median of 5 replicates", "result": 0.8, "unit": "mg/mL"}, {"measurement": "MBIC in indicvdual replicates Replicate 1", "setting": "[4]; 24 h incubation", "result": ">1.6", "unit": "mg/mL"}, {"measurement": "MBIC in indicvdual replicates Replicate 2", "setting": "[4]; 24 h incubation", "result": ">1.6", "unit": "mg/mL"}, {"measurement": "MBIC in indicvdual replicates Replicate 3", "setting": "[4]; 24 h incubation", "result": ">1.6", "unit": "mg/mL"}, {"measurement": "MBIC in indicvdual replicates Replicate 4", "setting": "[4]; 24 h incubation", "result": ">1.6", "unit": "mg/mL"}, {"measurement": "MBIC in indicvdual replicates Replicate 5", "setting": "[4]; 24 h incubation", "result": ">1.6", "unit": "mg/mL"}, {"measurement": "MBIC Median value", "setting": "[4]; median of 5 replicates", "result": ">1.6", "unit": "mg/mL"}]}
